According to patent US9744211B2, “Uses of BT lipopeptides as therapeutics for obesity and related diseases” (MYGALAXY LIMITED COMPANY, priority 2012, dated 2017):

Test system: isolated chicken heterophils
Test: PMA-stimulated oxidative burst of heterophils in vitro (BT priming assay, with or without anti-TLR2 antibody blocking)
Type: cell-based
Settings: Group 2: PMA stimulation only, no BT
Excerpt: However, the in vitro priming assay provides a useful tool for probing possible signaling pathway involved in BT-mediated innate immunomodulation. Since TLRs are conserved receptors playing key roles in innate immunity (Farnell et al., 2003) and TLR2 is the only TLR that has lipopeptide agonists, the same in vitro BT priming assay (Kogut et al., 2012) was employed to investigate whether TLR2 can function as a receptor for BT lipopeptides.
Goat polyclonal antibodies raised against human TLR2 were purchased from Santa Cruz Biotechnology Lab (Santa Cruz, Calif.). For TLR2-blocking, isolated chicken heterophils and the antibodies (2.0 μg/ml) were incubated, prior to the treatments of BT and/or PMA, at 39° C. for 30 minutes.

For CCCCCCCCCCCCCC(=O)O[C@@H]1[C@@H](C)[C@@]2(O)[C@@H](C=C(CO)C[C@]3(O)C(=O)C(C)=C[C@@H]23)[C@@H]2C(C)(C)[C@]12OC(C)=O [PMA], the “Oxidative burst (RFU + SE) in 10^3” value was 11.235 ± 0.125 RFU in 10^3.
